Reference: the METLIN SMRT retention time set (Domingo-Almenara et al. 2019)

Experiment: gradient 5% acetonitrile 3 min, to 50% in 2 min, to 85% in 15 min, held 3 min, 100 µL/min
Details: column: Zorbax Extend-C18 2.1 x 50 mm; eluents: water / acetonitrile, 0.1% formic acid
Procedure, shortened: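 Pure standards were analyzed in mixtures of ~100 molecules using HPLC coupled to a quadrupole time-of-flight mass spectrometer, in both positive and negative ionization mode. Separation used a Zorbax Extend-C18 column (2.1 × 50 mm, 1.8 μm) at 100 μL/min, with water and acetonitrile each containing 0.1% formic acid. Dead and dwell volumes were 40 μL and 900 μL, and data were collected over 3 months. Retention time was read from computationally picked adduct peaks, each inspected manually.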

## CC(NC(=O)C(=O)N1CCOCC1)C(c1cccs1)N1CCN(c2ccccc2F)CC1 (stereo not drawn)
  RP-LC retention time: 692 s

## COc1cccc(-n2c(=O)c3sccc3n(Cc3nc(-c4ccc(Cl)c(F)c4)no3)c2=O)c1
  RP-LC retention time: 1060 s

## Cc1ccc(-n2nc(N3CCCC(C(=O)Nc4cccc(C)c4C)C3)ccc2=O)cc1Cl (stereo not drawn)
  RP-LC retention time: 999 s

## CC1CCN(C(=O)C2CC(=O)N(c3ccccc3)C2)CC1 (stereo not drawn)
  RP-LC retention time: 764 s

## Cc1ccc(-n2c(=O)c3c(cc(C)n3C)n(CC(=O)Nc3ccccc3Cl)c2=O)cc1
  RP-LC retention time: 900 s

## O=C(COc1ccccc1F)NCC1(c2cccs2)CCOCC1
  RP-LC retention time: 790 s

## CCCn1ccc2sc(C)c(C(=O)NCc3ccc(Cl)cc3)c2c1=O
  RP-LC retention time: 985 s

## CCN(CC)c1ccc(Nc2nc(-c3ccc(Cl)cc3)cs2)cc1
  RP-LC retention time: 791 s

## CN(C)C(=O)c1csc(S(=O)(=O)N2CCC(C(=O)Nc3ccccc3F)CC2)c1
  RP-LC retention time: 770 s

## CCOC(=O)NCc1nc(COc2ccc(OC)cc2)no1
  RP-LC retention time: 727 s

## CCc1noc(NC(C)=O)c1-c1ccc(C)c(S(=O)(=O)Nc2ccc(OC)c(Cl)c2)c1
  RP-LC retention time: 1300 s

## Cc1ncc2c(n1)CCN(S(=O)(=O)c1ccc(Br)s1)C2
  RP-LC retention time: 778 s

## Cc1nn(C)c(C)c1CCCN(C)C(=O)CCc1ccnc(N2CCOCC2)c1
  RP-LC retention time: 521 s

## COc1ccc(-c2cn3c(CC(=O)Nc4ccc(Cl)cn4)csc3n2)cc1OC
  RP-LC retention time: 715 s

## COC1CN(c2cccc(F)c2)C12CCN(Cc1cccc(F)c1)CC2 (stereo not drawn)
  RP-LC retention time: 761 s

## Cc1ccc2c(c1)N(CCCC(=O)N1CCN(Cc3cn(C)c4ccccc34)CC1)C(=O)CO2
  RP-LC retention time: 706 s

## Cc1ccc(-c2csc(NC(=O)CCCc3nc(-c4ccc(Cl)cc4)no3)n2)cc1
  RP-LC retention time: 1240 s

## COc1ccc(NC(=O)c2cnc3c(c2)c(=O)n(C)c(=O)n3-c2ccc(OC)cc2)cc1
  RP-LC retention time: 859 s

## COCCn1nnnc1C1CC2(CCOCC2)C(=O)N1Cc1ccc(C(F)(F)F)cc1 (stereo not drawn)
  RP-LC retention time: 797 s

## CCC(=O)N(C1CCOCC1)C1CCN(Cc2cc(F)c(F)cc2F)CC1
  RP-LC retention time: 608 s

## O=C(Cn1cccc(-c2nc(-c3ccc(F)cc3)no2)c1=O)N1CCCC1
  RP-LC retention time: 727 s

## O=C(c1cc(N2C(=O)CCS2(=O)=O)ccc1Cl)N1CCN(c2ccccn2)CC1
  RP-LC retention time: 566 s

## COc1ccccc1OCCNC(=O)c1ccc2[nH]c3c(c2c1)CN(C(C)=O)CC3
  RP-LC retention time: 680 s

## CC(C)c1cc(C2CCCN2C(=O)c2ccsc2)no1 (stereo not drawn)
  RP-LC retention time: 828 s

## O=C(Nc1nc(-c2ccc(-c3ccccc3)cc2)cs1)c1cccnc1
  RP-LC retention time: 1030 s

## CCN1c2cc(C)ccc2-n2cccc2C12CCN(C(=O)NCC(=O)OC)CC2
  RP-LC retention time: 895 s

## COc1ccccc1CCC(=O)Nc1ccc2c(c1)Sc1ncccc1C(=O)N2C(C)C
  RP-LC retention time: 922 s

## COc1cccc(CN2CC(N(C3CCOCC3)S(C)(=O)=O)C2)c1
  RP-LC retention time: 614 s

## CN(C)C(=O)c1ccc2c(c1)N(CC(=O)Nc1ccc(F)cc1)C(=O)CO2
  RP-LC retention time: 654 s

## CCCNC(=O)Cn1cnc2sc(C(=O)NC3CCCC(C)C3C)c(C)c2c1=O (stereo not drawn)
  RP-LC retention time: 857 s

## CS(=O)(=O)c1ccc([C@@H](O)[C@@H](CF)NC(=O)C(Cl)Cl)cc1
  RP-LC retention time: 723 s

## CCCn1cc(CCNS(=O)(=O)c2ccc3c(c2)CCC3)c2cccnc21
  RP-LC retention time: 938 s

## Cc1nc(-c2ccc(C)c(S(=O)(=O)NCCN(C)C)c2)cs1
  RP-LC retention time: 612 s

## Cc1ccccc1Cn1c(CN2CCC(C(=O)NCCc3ccco3)CC2)cc2ccccc21
  RP-LC retention time: 805 s

## COc1ccccc1NC(=O)Cn1nc2c(Oc3cccc(Cl)c3)nccn2c1=O
  RP-LC retention time: 900 s

## Cc1noc(CNC(=O)CN(C)c2nc3c(F)cccc3s2)n1
  RP-LC retention time: 667 s

## O=c1n(CCOc2ccc(F)cc2)nc2c(S(=O)(=O)N3CCCC3)cccn12
  RP-LC retention time: 824 s

## CCOC(=O)c1c(C)n(C)c2ccc(OCC(O)CN3CCOCC3)cc12 (stereo not drawn)
  RP-LC retention time: 630 s

## COCCOC1CCC12CCN(Cc1ccccc1C#N)CC2 (stereo not drawn)
  RP-LC retention time: 610 s

## CN(C)c1ccc(CNC(=O)C2CCN(c3cncnc3N3CCOCC3)CC2)cc1
  RP-LC retention time: 545 s

## O=C(NCc1ccccn1)c1ccc2c(c1)CCCN2S(=O)(=O)c1ccccc1
  RP-LC retention time: 703 s

## COc1ccc(OC)c(Nc2c(-c3nc(C)no3)cnc3nc(C)ccc23)c1
  RP-LC retention time: 610 s

## Cc1ccc(NC(=O)C2CCCN2S(=O)(=O)c2cc3c(cc2C)NC(=O)CO3)cc1C (stereo not drawn)
  RP-LC retention time: 794 s

## O=C(C1CCN(c2cncnc2N2CCCCC2)CC1)N1CCOCC1
  RP-LC retention time: 593 s

## Cc1[nH]c(C)c(S(=O)(=O)N2CCC(C(=O)Nc3cccc(F)c3)CC2)c1C(=O)N1CCCC1
  RP-LC retention time: 720 s

## COc1ccc(OC)c(S(=O)(=O)N2C[C@@H](F)C[C@H]2C(=O)N2CCCCC2)c1
  RP-LC retention time: 762 s

## O=C(c1cnccn1)N1CCN(c2ccc(-n3cccn3)nn2)CC1
  RP-LC retention time: 580 s

## COc1cccc(NC(=O)Nc2ccc3nc(N4CCN(C)CC4)cc(C)c3c2)c1
  RP-LC retention time: 587 s

## Cc1ccc(Cl)cc1NC(=O)C1CC(=O)N(CCc2c[nH]c3ccc(F)cc23)C1 (stereo not drawn)
  RP-LC retention time: 875 s

## Cn1cnc(S(=O)(=O)N2CCC(C(=O)Nc3ccc(F)c(Cl)c3)CC2)c1
  RP-LC retention time: 762 s

## Cc1noc(C)c1Cc1ccc(C(=O)N2CCC(N3C[C@H](O)C[C@H]3C(=O)NC3CCCCC3)CC2)o1
  RP-LC retention time: 656 s

## COc1ccc(NC(=O)C2(C)Oc3cccnc3N(C(C)C)C2=O)c(OC)c1 (stereo not drawn)
  RP-LC retention time: 1010 s

## COc1ccc(OC)c(S(=O)(=O)Nc2ccc(Oc3nc4ccccc4n4cnnc34)cc2)c1
  RP-LC retention time: 766 s

## CCOc1ccc(-n2c(SCC(=O)Nc3ncn[nH]3)nc3ccsc3c2=O)cc1
  RP-LC retention time: 692 s

## O=C([C@@H]1C[C@H](F)CN1S(=O)(=O)c1cc(F)ccc1F)N1CCCCC1
  RP-LC retention time: 794 s

## Cc1cc(C(=O)N2CCCCC2c2nncn2-c2ccccc2)nn1C (stereo not drawn)
  RP-LC retention time: 647 s

## CCOc1cccc(-c2noc(-c3nn(-c4ccc(C)c(C)c4)ccc3=O)n2)c1
  RP-LC retention time: 1060 s

## CC(C)n1nc(-c2ccc3oc(N)nc3c2)c2c(N)ncnc21
  RP-LC retention time: 628 s

## Cc1cc(C)cc(NC(=O)CN2C(=O)CSc3ccc(C(=O)N4CCCC4)cc32)c1
  RP-LC retention time: 634 s

## Cc1ccc(CNC(=O)C2(C)CN(S(C)(=O)=O)CC(=O)N2c2ccc(F)cc2F)cc1 (stereo not drawn)
  RP-LC retention time: 814 s

## O=C(Cc1ccccc1Br)N1CCN(c2cc(-c3ccc(F)cc3)[nH]n2)CC1
  RP-LC retention time: 867 s

## COc1ccc(-c2cn3c(CC(=O)Nc4ccc(F)cc4Cl)csc3n2)cc1
  RP-LC retention time: 795 s

## CC(C)c1ccc(NC(=O)CN2CCN(C(=O)Nc3ccc(Br)cc3)CC2=O)cc1
  RP-LC retention time: 885 s

## CCCn1cc(CCNC(=O)Nc2cc(C)cc(C)c2)c2cccnc21
  RP-LC retention time: 736 s

## Cc1ccc(CNC(=O)C2(C)Cn3cnc(C(=O)N4CCCCC4)c3C(=O)N2C2CC2)cc1 (stereo not drawn)
  RP-LC retention time: 784 s

## COc1ccc(CN2CCC3(CC2)CC(O)CCO3)c(OC)c1 (stereo not drawn)
  RP-LC retention time: 581 s

## O=C(Oc1ccc2oc(=O)sc2c1)c1cccc(Cl)c1
  RP-LC retention time: 1090 s

## COc1ccc(NC(=O)N2CCC3(CC2)N=C(c2cccc(F)c2)C(=O)N3)c(OC)c1
  RP-LC retention time: 786 s

## Cc1ccc(-c2noc(-c3ccccc3S(=O)(=O)N3CCCCC3)n2)cc1
  RP-LC retention time: 1210 s

## CC(C)Cn1cc(CCNS(=O)(=O)c2ccc(Br)cc2)c2cccnc21
  RP-LC retention time: 998 s

## Cc1nc(Cn2cccc2C(=O)N2CCN(c3cccc(Cl)c3)CC2)no1
  RP-LC retention time: 974 s

## Cc1ccsc1C(=O)NCC(=O)N1CCCc2ccccc21
  RP-LC retention time: 832 s

## Cc1ccc(Nc2nc(-c3ccc(F)cc3F)cs2)nc1
  RP-LC retention time: 1070 s

## O=C(Nc1cc(-c2ccccn2)no1)c1cccc(Br)c1
  RP-LC retention time: 894 s

## COc1cccc(Cn2nc3c(S(=O)(=O)N4CCc5ccccc5C4)cccn3c2=O)c1
  RP-LC retention time: 943 s

## COc1ccc(C2C(C(=O)Nc3cc(OC)c(OC)c(OC)c3)c3ccccc3C(=O)N2C)cc1 (stereo not drawn)
  RP-LC retention time: 815 s

## COC(=O)C1=C(C)NC(=O)NC1c1ccc(Cl)c(Cl)c1 (stereo not drawn)
  RP-LC retention time: 726 s

## Cn1nccc1C(=O)Nc1ccc(Br)cc1
  RP-LC retention time: 791 s

## COc1ccccc1NC(=O)Cn1nc2c(N3CCCCCC3)nccn2c1=O
  RP-LC retention time: 696 s

## CN(C)C(=O)c1ccc2c(c1)N(CC(=O)N1CCCCC1)C(=O)C1CCCCN21 (stereo not drawn)
  RP-LC retention time: 701 s

## Cc1nn(CC(=O)NCCN2CCCC2)c(=O)c2cc(-c3ccccc3)nn12
  RP-LC retention time: 631 s

## COc1ccc2[nH]c(=O)c(CCC(=O)NCc3cccc(OC)c3OC)cc2c1
  RP-LC retention time: 694 s

## O=C(COc1ccccc1F)Nc1ccc2c(c1)N(C(=O)c1ccco1)CCC2
  RP-LC retention time: 834 s

## Cc1cc2[nH]c(C(=O)Nc3cc(F)ccc3F)c(CN3CCOCC3)c2s1
  RP-LC retention time: 730 s

## CCC(=O)N1CCN(c2nc3c(s2)CC(C(=O)Nc2ccc(C)cc2Cl)CC3)CC1 (stereo not drawn)
  RP-LC retention time: 607 s

## COc1cccc2cc(C(=O)Nc3nc(-c4ccc(Cl)cc4)cs3)c(=O)oc12
  RP-LC retention time: 1290 s

## CNC(=O)c1cc(=O)[nH]c2ccccc12
  RP-LC retention time: 580 s

## COc1cccc(NC(=O)Cn2nc3c(Oc4cccc(Cl)c4)nccn3c2=O)c1
  RP-LC retention time: 858 s
